Where two headings read alike, the source gives them in different places.
Tests used:
Male Wistar rats = experiment: Vogel Test (Lick Conflict Test), anxiolytic activity; assay type: in vivo; conditions: Rattus norvegicus, po, 1 h, p.o., one hour before testing, read-out: Minimum effective dose (mg/kg, p.o.)
Experimental: 1. Vogel Test (Lick Conflict Test)
Male Wistar rats of 160 to 180 g body weight were kept free of food and drinking water for 24 and 48 hours, respectively. The test and carrier substances (0.4% methyl-cellulose) were administered orally one hour before testing. Groups consisting of 8 animals were used. The rats within the experimental chamber were provided with drinking water through an inserted tube. After the animals' each twenty lapping for water the device emitted a 1.4 mA intensity electric shock through the drinking tube. During 5 minutes the shocks tolerated by the animals in order to quench their thirst were counted. The effect of treatment was expressed as the % increase of the tolerated shocks. The minimum effective dose (MED) was determined for each test compound (Vogel, J. R., Beer, B., Clody, D. E.: Psycho-pharmacologia (Berl.) 21, 1 /1971/).

in vivo = conditions: mouse, NMRI mice, 7 days observation
Experimental: White mice belonging to the NMRI strain (body weight 20 to 25 g. both male and female) were used, 6 animals for each dose. The test compound was administered orally in a volume of 20 ml/kg, the maximum oral and intraperitoneal doses were 1000 mg/kg and 300 mg/kg, respectively. […] The mice were kept under usual laboratory conditions.

[1] = system: Male Wistar rats (Charles River); experiment: Hole-Board Test, head-dipping activity; assay type: in vivo; conditions: Rattus norvegicus, po, 1 h, p.o., one hour before testing, from head-dipping activity, read-out: Minimum effective dose (mg/kg, p.o.)
Experimental: The experiment was carried out according to a slightly modified method of File [File, S. E., Wardill, A. G., Psychopharmacologia, 44, 53-59, (1975)]. Male Wistar rats (Charles River) weighing 160-200 g were fasted for 24 hours prior to the experiment. They were treated orally in a volume of 5 ml/kg one hour before testing, a treated group consisted of 12 animals. The test compounds were suspended in 0,4 methylcellulose solution, the control group was treated with methylcellulose. All procedures were carried out in a quiet, air-conditioned laboratory between 9:00 and 13:00 hours at ambient temperature (23°+2° C.). Locomotor and head-dipping activity were measured using automated test chambers (Digiscan, OMNITECH Electronics Inc., Columbus, Ohio). The floor of each box contained 4 equally spaced holes (3.5 cm in diameter) through which rat could pop its head. Interruptions of infrared beams (16 of them is located 1.0 cm below and an other […] above the floor level) were automatically recorded by digiscan analyser and then transmitted to a computer and analysed by OASIS softwer. The hole-board testing involved placing a rat in the center of the floor and allowing it to explore for 5 minutes.
At the end of each trial any boluses were removed and the box was thoroughly wiped. Minimum effective doses of the compounds were calculated from the head-dipping activity values.

[2] = system: Male rats belonging to the Sprague Dawley strain; experiment: Elevated Plus Maze Test on Rat, anxiolytic activity; assay type: in vivo; conditions: for minimal effective dose: Rattus norvegicus, po, 1 h, p.o., 60 minutes pretreatment, significant increase of time spent on the open arms, Sprague Dawley rats, read-out: Minimum effective dose (mg/kg, p.o.)
Experimental: 1.2 Elevated Plus Maze Test on Rat
The test was carried out with the aid of a wooden plus-shaped maze elevated to a height of 50 cm. Two arms (100 cm long and 15 cm wide)--opposite to one another--were enclosed up to a height of 40 cm along their longer sides and at the end. The other two arms were without walls (open arms). The central 15×15 cm part was open. Male rats belonging to the Sprague Dawley strain and weighing 220 to 260 g were used as test animals. After pretreatment lasting 60 minutes the animals were placed into the central part of the maze. During the 5 minutes observation period the following parameters were recorded: […]
time spent on the open arms time spent on the closed arms number of open arm entries number of closed arm entries.
The drug effect was expressed as percent increase of the time spent on the open arms and number of open arm entries. The minimum effective dose which caused a significant increase of the time spent on the open arms was calculated for every substance [Pelow, S., Chopin, P., File, S. E., Briley, M.: J. Neurocsi. Methods 14, 149-167 (1985)].

[3] = ip, read-out: LD50 (mg/kg, i.p.)
[4] = po, read-out: LD50 (mg/kg, p.o.)

SMILES	minimal effective dose (Male Wistar rats) [mg/kg]	LD50 at 168 h (in vivo; [3]) [mg/kg]	LD50 at 168 h (in vivo; [4]) [mg/kg]	minimal effective dose [1] [mg/kg]	minimal effective dose [2] [mg/kg]	times more effective than diazepam ([2]; elevated plus maze, relative to diazepam) [times]
COc1cc2ccnc(C=Cc3ccc(F)cc3)c2cc1OC [Example 5, 1-(4-fluorostyryl)-6,7-dimethoxyisoquinoline]	0.0003	> 300	> 1000			
COc1ccc(C=Cc2nccc3cc4c(cc23)OCO4)cc1OC [Example 20, 1-(3,4-dimethoxystyryl)-6,7-methylenedioxyisoquinoline]		> 300	> 1000			
Clc1ccc(C=Cc2nccc3ccccc23)c(Cl)c1 [Example 8, 1-(2,4-dichlorostyryl)-isoquinoline]		> 300	> 1000			
Cc1cc2cc3c(cc2c(C=Cc2cccc(Br)c2)n1)OCO3 [Example 19, 1-(3-bromostyryl)-3-methyl-6,7-methylenedioxyisoquinoline]		> 300	> 1000			
COc1ccc(C=Cc2nccc3cc(OC)c(OC)cc23)cc1 [Example 21, 6,7-dimethoxy-1-(4-methoxystyryl)-isoquinoline]	0.03	> 300	> 1000	0.01		
COc1ccc(C=Cc2nccc3cc(OC)c(OC)cc23)cc1OC [Example 7, 1-(3,4-dimethoxystyryl)-6,7-dimethoxyisoquinoline]		> 300	1000			
CN1C(=O)CN=C(c2ccccc2)c2cc(Cl)ccc21 [Diazepam, reference compound]	0.1			0.1	2.5	
COc1cc2cc(C)nc(C=Cc3ccc(C#N)cc3)c2c(OC)c1OC [Example 9, 1-(4-cyanostyryl)-3-methyl-6,7,8-trimethoxyisoquinoline]	0.01	> 300	> 1000			
COc1cc2cc(C)nc(C=Cc3ccc([N+](=O)[O-])cc3)c2cc1OC [Example 4, 3-methyl-6,7-dimethoxy-1-(4-nitrostyryl)-isoquinoline]	0.01	> 300	> 1000			
FC(F)(F)c1ccc(C=Cc2nccc3cc4c(cc23)OCO4)cc1 [Example 3, 6,7-methylenedioxy-1-[(4-trifluoromethyl)-styryl]-isoquinoline]	1e-05	> 300	> 1000	0.0001	0.1	25
COc1cc2ccnc(C=Cc3ccc(C(F)(F)F)cc3)c2cc1OC [Example 6, 6,7-dimethoxy-1-[4-(trifluoromethyl)-styryl]-isoquinoline]	0.01	> 300	> 1000	0.0001		
COc1cc2cc(C)nc(C=Cc3ccc(Cl)cc3)c2cc1OC [Example 2, 1-(4-chlorostyryl)-3-methyl-6,7-dimethoxyisoquinoline]		> 300	> 1000			

Reference: patent US5889018A, “Heterocyclic compounds, pharmaceutical compositions comprising them and process for the preparation thereof” (Egis Gyogyszergyar RT., priority 1994, dated 1999)
